Results taken from ChEMBL document CHEMBL3085710, “Pahangensin A and B, two new antibacterial diterpenes from the rhizomes of Alpinia pahangensis Ridley” (2013).
Values after ≈ are worked out from the molar mass of the structure shown.

Key:
Bacillus cereus = assay: Antibacterial activity against Bacillus cereus Frankland and Frankland ATCC 11778 after overnight incubation by broth microdilution method; format: functional
Bacillus subtilis = assay: Antibacterial activity against Bacillus subtilis (Ehrenberg) Cohn ATCC 6051 after overnight incubation by broth microdilution method; format: functional
Staphylococcus aureus = assay: Antibacterial activity against Staphylococcus aureus Rosenbach ATCC 9144 after overnight incubation by broth microdilution method; format: functional
Salmonella sp. = assay: Antibacterial activity against Salmonella sp. ATCC 700623 after overnight incubation by broth microdilution method; format: functional
Salmonella typhimurium = assay: Antibacterial activity against Salmonella typhimurium (Loeffler) Castellani and Chalmers ATCC 14028 after overnight incubation by broth microdilution method; format: functional, Salmonella enterica subsp. enterica serovar Typhimurium; conditions: Salmonella enterica
Escherichia coli = assay: Antibacterial activity against Escherichia coli (Migula) Castellani and Chalmers ATCC 25922 after overnight incubation by broth microdilution method; format: functional

Row | Compound | MIC (Bacillus cereus) [µg/mL] | MIC (Bacillus subtilis) [µg/mL] | MIC (Staphylococcus aureus) [µg/mL] | MIC (Salmonella sp.) [µg/mL] | MIC (Escherichia coli) [µg/mL] | MIC (Salmonella typhimurium) [µg/mL]
1 | O=C(N[C@H](CO)[C@H](O)c1ccc([N+](=O)[O-])cc1)C(Cl)Cl [CHLORAMPHENICOL] | 15.6 (≈ 48.4 µM) | 15.6 (≈ 48.4 µM) | 31.2 (≈ 96.7 µM) | 15.6 (≈ 48.4 µM) | 7.81 (≈ 24.2 µM) | 15.6 (≈ 48.3 µM)
2 | CC1(C)S[C@@H]2[C@H](NC(=O)Cc3ccccc3)C(=O)N2[C@H]1C(=O)O [PENICILLIN G] | 62.5 (≈ 187 µM) | 15.6 (≈ 46.7 µM) | 3.91 (≈ 11.7 µM) | 31.2 (≈ 93.5 µM) | 125 (≈ 374 µM) | 125 (≈ 374 µM)

Continued, in another order:

Row | MIC (Bacillus cereus) [µg/mL] | MIC (Bacillus subtilis) [µg/mL] | MIC (Staphylococcus aureus) [µg/mL] | MIC (Salmonella sp.) [µg/mL] | MIC (Escherichia coli) [µg/mL] | Compound | MIC (Salmonella typhimurium) [µg/mL]
3 | 52.1 (≈ 157 µM) | – | – | – | – | C=C1CC[C@H]2C(C)(C)CCC[C@]2(C)[C@H]1C/C=C(/C=O)CC(=O)OC | –
4 | 31.2 (≈ 52.2 µM) | 31.2 (≈ 52.2 µM) | 52.1 (≈ 87 µM) | – | – | C=C1CC[C@H]2C(C)(C)CCC[C@]2(C)[C@H]1/C=C/C1=C(C2=C(/C=C/[C@H]3C(=C)CC[C@H]4C(C)(C)CCC[C@]34C)COC2=O)C(=O)OC1 | –
5 | 15.6 (≈ 26.9 µM) | 31.2 (≈ 53.7 µM) | 31.2 (≈ 53.7 µM) | 15.6 (≈ 26.9 µM) | 15.6 (≈ 26.9 µM) | CN[C@@H]1[C@H](O[C@H]2[C@H](O[C@H]3[C@H](O)[C@@H](O)[C@H](N=C(N)N)[C@@H](O)[C@@H]3N=C(N)N)O[C@@H](C)[C@]2(O)C=O)O[C@@H](CO)[C@H](O)[C@H]1O [STREPTOMYCIN] | 62.5 (≈ 107 µM)
